Data on five molecules can be found in patent US20150143553A1, “Methods And Compositions Comprising A Drosophila Model Of Amyotrophic Lateral Sclerosis” (priority 2013, published 2015).

Structures are written as SMILES. Where a name gives a salt, the structure may show the parent alone.

In data set [1] the test system is Drosophila larvae expressing N345K TDP-43 in motor neurons. Kind of data set: Drug screen: rescue of lethality caused by N345K TDP-43 expression in motor neurons (D42 Gal4). The format is in vivo. The following applies: transgene N345K; 50 μM in fly food. The method, then:
A drug screen aimed at rescuing the adult lethality caused by wild-type or mutant TDP-43 (D169G, G298S, A315T and N345K) overexpression in motor neurons has been performed (FIG. 11). 1200 FDA approved drugs from the Prestwick collection were fed to flies expressing TDP-43 at an initial concentration of 50 μM (as previously described in Chang et al., 2008). This screening strategy has several advantages including: (1) it is performed in vivo, (2) it is based on a robust phenotype (100% adult lethality), (3) it can lead to rapid identification of drugs that are already approved for use in humans and (4) it can inform the future development of small molecules with enhanced neuroprotective capabilities.
FDA approved drugs from the Prestwick collection (200 mM in DMSO) are mixed with yeast-cornmeal based food and a bromophenol blue (as a mixing indicator) at a final concentration of 50 μM. Larvae expressing TDP-43 (wild type or mutant, as shown) are raised on drug containing food. In the absence of drugs, TDP-43 expression is lethal at the pupal/pharate stage. Drugs that rescued TDP-43 Induced Lethality (anywhere from 1-12 adults) were considered as candidates for future studies.
FDA approved drugs from the Prestwick collection (200 mM in DMSO) were mixed with yeast-cornmeal based food and a bromophenol blue (as a mixing indicator) at a final concentration of 50 μM. Larvae expressing TDP-43 (wt or mutant) were raised on drug containing food. In the absence of drugs, TDP-43 expression was lethal at the pupal/pharate stage. Drugs that rescue TDP-43 induced lethality (anywhere from 1-12 adults) were considered as candidates for future studies.
Using a Drosophila model of ALS based on TDP-43 that recapitulates several aspects of the disease pathophysiology (33, 35), a drug screen aimed at identifying FDA approved compounds with neuroprotective potential in vivo were designed (FIG. 37A). […] This phenotype was used to screen for drug candidates with therapeutic potential as determined by their ability to rescue pupal lethality and produce viable adults with extended wings (FIG. 37A). […]

The test system of data set [2] is Drosophila larvae expressing wild-type TDP-43 in motor neurons. The experiment in a line: Drug screen: rescue of lethality caused by wild-type TDP-43 expression in motor neurons (D42 Gal4). It is filed as in vivo. Conditions: for Preliminary rescue result: adults with normal wings: transgene WT2, 50 μM in fly food; for Rescue Effect: transgene wt, primary screening (50 μM), out of 15-20 pupae; for Av. % rescue (number of rescued adults/total number of pupae × 100%): TDP^WT.

Data set [3] deals with cytochrome P450. The following applies: cited from earlier work.
Data set [4] relates to Drosophila larvae expressing G298S TDP-43 in motor neurons. Kind of data set: Drug screen: rescue of lethality caused by G298S TDP-43 expression in motor neurons (D42 Gal4). The format is in vivo. The following applies: TDP^G298S. The text has this:
[…] Larvae expressing TDP-43 (wild type or mutant, as shown) are raised on drug containing food.
[…] Larvae expressing TDP-43 (wt or mutant) were raised on drug containing food.
Using a Drosophila model of ALS based on TDP-43 that recapitulates several aspects of the disease pathophysiology (33, 35), a drug screen aimed at identifying FDA approved compounds with neuroprotective potential in vivo were designed (FIG. 37A). […] This phenotype was used to screen for drug candidates with therapeutic potential as determined by their ability to rescue pupal lethality and produce viable adults with extended wings (FIG. 37A).
Larvae expressing TDP-43 in motor neurons (D42>TDP-43) were raised on fly food containing different amounts of drug (1, 10 and 25 μM, see Materials and Methods for details) or Dimethyl Sulfoxide (DMSO) as vehicle control (FIG. 37B, C).
UAS TDP-43 males were crossed with D42-Gal4 female virgins on fly food containing either DMSO or pioglitazone. For DMSO controls, the same volume of DMSO as the corresponding drug concentration was added. Bromophenol blue was added to a final concentration of approximately 0.02% to ensure homogeneity. Crosses were made on drug food with 3 female virgins and 2 males in each vial, and were maintained at 25° C. unless noted. The parents were discarded after 5-7 days then the vials were screened for adult progeny with straight wings from day 14 to day 25. All adults were screened for TDP-43 expression by visualizing the YFP tag. Total number of pupae was counted on day 25. Percent survival was calculated using the formula (total number of straight-winged adults/total number of pupae)×100. All experiments were performed in triplicate.

The subject of data set [5] is Larvae expressing TDPWT in motor neurons. The experiment in a line: Larval turning assay, D42>TDPWT. The format is in vivo, Drosophila. The following applies: 1 μM pioglitazone in food; DMSO 14.5+/−1 sec. As for the experimental part: (§1) Assays were performed as disclosed herein. Briefly, wandering third instar larvae were placed on a grape juice plate at room temperature. After becoming acclimated, crawling larvae were gently turned onto their backs (ventral side up) and monitored until they were able to turn back (dorsal side up) and continue their forward movement. The amount of time that it took each larva to complete this task was recorded. Twenty to thirty larvae were used per genotype. Student's t-test was performed to assess statistical significance.
(§2) Next an ideal drug concentration was determined using a more sensitive and disease relevant assay that measures neuromuscular coordination, namely larval turning (see Materials and Methods for details). Larvae expressing TDPWT or TDPG298S in motor neurons (D42>TDP-43) were raised on food containing either 1, 5, 10, 25 μM pioglitazone or DMSO and assayed for their locomotor ability using larval turning assays.
(§3) Assays were performed as described herein (33, 35). Briefly, wandering third instar larvae were placed on room temperature grape juice plates, allowed to acclimate then gently turned ventral side up. The time required for larvae to flip back to dorsal side up and start moving forward was noted as the larval turning time. At least 30 larvae per genotype and condition were tested.

Data set [6] concerns Larvae expressing TDPG298S in motor neurons. Kind of data set: Larval turning assay, D42>TDPG298S. The format is in vivo, Drosophila. Conditions: 1 μM pioglitazone in food; DMSO 25.8+/−1.8 sec. As for the experimental part:
as §1, §2, §3

In data set [7] the test system is wild-type control larvae (D42>w1118). Kind of data set: Larval turning assay, wild-type control larvae. The format is in vivo, Drosophila. The following applies: 1 μM pioglitazone. The method, then:
as §2, §3

Data set [8] deals with D42>TDPWT larvae. The experiment in a line: Global metabolomic profiling, D42>TDPWT larvae. It is filed as in vivo, Drosophila. The following applies: 1 μM pioglitazone. The method, then:
To gain insight into the mechanism by which pioglitazone is neuroprotective, a global metabolomic approach was taken using larvae expressing TDP-43 in motor neurons (D42>TDP-43) and D42>w1118 controls raised on either 1 μM pioglitazone, DMSO or regular food. To determine specific metabolites that were restored by pioglitazone in the context of TDPWT, the metabolic profiles of D42>TDPWT larvae raised on drug food versus DMSO were compared and 111 alterations were found among a total of 572 metabolites detected in the samples. […] This led to the identification of 28 metabolites altered by both pioglitazone and TDPWT (Table 2). […] In addition, 6 metabolites further altered by pioglitazone in the same direction as that of TDP-43 were found, consistent with a potential worsening effect. Among the 28 metabolites some were also affected by DMSO alone as determined by comparing the metabolic profiles of D42>TDPWT larvae raised on DMSO and D42>TDPWT larvae raised on regular food.
D42 Gal4 virgin females were crossed with UAS TDP-43 YFP or w1118 males and raised on regular food (RF), DMSO or 1 μM Pioglitazone (PGZ) containing food. 50-60 third instar larvae (approximately 50-60 mg) were collected and flash frozen in liquid nitrogen. Samples were made in 5 replicates. Global metabolomic study was performed following standard protocols by Metabolon, INC (Durham, N.C.). Briefly, protein samples were divided into four fractions: one for analysis by UPLC-MS/MS with positive ion mode electrospray ionization, one for analysis by UPLC-MS/MS with negative ion mode electrospray ionization, one for analysis by GC-MS, and one sample was reserved for backup. Raw data was extracted, peak-identified and QC processed using Metabolon's hardware and software. Compounds were identified by comparison to library entries of purified standards or recurrent unknown entities. Peaks were quantified using area-under-the-curve. Following normalization to Bradford protein concentration data were log transformed. Missing values for a given metabolite were imputed with the minimum observed value for each compound based on the assumption that they were below the limit of instrument detection sensitivity. For studies spanning multiple days, a data normalization step was performed to correct variation resulting from instrument inter-day tuning differences.
Student's T test was used for statistical analysis of larval turning experiments and Log-rank test was used for survival analyses. For metabolomics standard statistical analyses were performed in ArrayStudio on log transformed data. For those analyses not standard in ArrayStudio, the programs R (cran.r-project.org/) or JMP (jmp.com) were used. Welch's two-sample t-test and matched pairs t-test were used to compute p-values. False discovery rates were calculated as described (69).

Data set [9] relates to ALS patients. The following applies: ALS patients administered pioglitazone; cited from earlier work.

Take `CN1C(=O)CCS(=O)(=O)C1c1ccc(Cl)cc1` (stereo not drawn) [Chlormezanone]: the “Preliminary rescue result: adults with normal wings” value (“Preliminary rescue result: adults” for short) in data set [1] is recorded as 1 Adult Normal Wings Adults.
On to `C1CCC(C(CC2CCCCN2)C2CCCCC2)CC1` (stereo not drawn) [Perhexiline Maleate], for which the “Preliminary rescue result: adults” value in data set [1] turned out to be 12 Adults.
For the molecule `Cc1c(C)c2c(c(C)c1O)CCC(C)(COc1ccc(CC3SC(=O)NC3=O)cc1)O2` (stereo not drawn) [Troglitazone], in [2], the “Preliminary rescue result: adults” value worked out at 2 Adults Normal Wings and the “Rescue Effect” value came to 2 adults. In addition, in [3], the “activity in high-throughput screen for modulators of cytochrome P450” value is reported as “active”.
Regarding `CCc1ccc(CCOc2ccc(CC3SC(=O)NC3=O)cc2)nc1` (stereo not drawn) [Pioglitazone], the “Av. % rescue (number of rescued adults/total number of pupae × 100%)” value in data set [2] (PGZ 1 μM) stood at 15.2%; in data set [2] (PGZ 10 μM), 1.7%; in [2] (PGZ 25 μM), 0.8%; in data set [4] (PGZ 1 μM), 19.4%; in data set [4] (PGZ 10 μM) it was 15.0%; in data set [4] (PGZ 25 μM) it was 9.7%. The “Preliminary rescue result: adults” value in data set [2] is 1 Adult Normal Wings Adults. In addition, in data set [2], the “Rescue Effect” value was determined as 1 adults. Further, the larval turning time in data set [5] came out at 9.2 ± 0.7 s; in data set [6] it was 17.3 ± 1.1 s. The “effect on larval turning time in control larvae” value in data set [7] is given as “no effect”. For the same molecule, in data set [8], the “metabolites altered by both pioglitazone and TDPWT” value is 28. The “metabolites altered in opposite direction compared to TDPWT (restoration)” value in [8] was 14. In addition, in [8], the “metabolites further altered in the same direction as TDP-43 (worsening)” value came out at 6. In addition, the “metabolites similarly affected by pioglitazone and TDPWT (no further change)” value in [8] was 8. In [8], the “saccharopine level, pioglitazone compared to DMSO” value is recorded as 0.67. The “N-acetylglutamine level, pioglitazone versus DMSO” value in data set [8] (Pvalue<0.05) is 0.74. The “4-hydroxybutyrate (GHB) level, pioglitazone compared to DMSO” value in [8] (Pvalue=0.04) was 0.41. For the same molecule, the “metabolite alterations, drug food versus DMSO” value in data set [8] (among a total of 572 metabolites) is recorded as 111. Also, in data set [8] (not significant), the “pyruvate level, pioglitazone compared to DMSO” value turned out to be 0.68. Also, in data set [9], the “hazard ratio for mortality” value is listed as “increase in hazard ratio for mortality”.
On to `CN(C)c1ccc(O)c2c1C[C@H]1C[C@H]3[C@H](N(C)C)C(O)=C(C(N)=O)C(=O)[C@@]3(O)C(O)=C1C2=O` [Minocycline], for which, in [1], the “Preliminary rescue result: adults” value amounted to 1 Adult Normal Wings Adults.
